Data reported in patent US6942663B2, “Laser treatment of cutaneous vascular lesions” (Board of Regents, The University of Texas System, priority 2002, dated 2005).
“Also recorded” adds a separate entry of the source.

How the values were obtained:
Type in all cases: in vivo, hamster
[1] = tested on: main arteriole-venule pair of the dorsal skin flap window preparation; assay: Epidermal laser irradiation of main arteriole-venule pair after glycerol, CDOCT assessment at 24 h
From the text: (§1) Anhydrous glycerol was applied to the subdermal side of the dorsal skin flap window preparation. The subdermal side of the window preparation contains a well approximately 2 mm deep and 1 cm in diameter placed directly over the exposed subdermal skin. A small opening at the bottom allows the flow of glycerol out of the well. This well was filled with glycerol and continually refilled for a total time of twenty minutes. Any remaining glycerol was removed from the well at the end of twenty minutes.
In this set of experiments, three dorsal skin flap window preparations were treated with glycerol on the subdermal side of the skin. Then, the main arteriole-venule pair (such as the one labeled A and V in FIG. 3) was irradiated from the epidermal side to determine the approximate range of radiant exposures required to permanently destroy blood vessels in skin treated with glycerol. Since no published data exists for direct comparison with controls, two native hamster dorsal skin flap window preparations were irradiated from the epidermal side as well.
(§2) The skin surrounding the main arteriole-venute pair in each window preparation was first imaged using Color Doppler optical coherence tomography (CDOCT) (see FIG. 5). The skin was imaged from the subdermal side since these blood vessels are located approximately 100 μm from the subdermal surface, allowing for accurate determination of vessel flow and size characteristics. In the case of control samples (2), the vessels were irradiated from the epidermal side immediately after imaging the native skin. This was achieved by applying a single pulse from a 532 nm, 3 mm spot size, 10 ms pulse duration laser (Versapulse V, Coherent) to the skin without altering its position relative to the CDOCT sample probe. The experimental setup is illustrated in FIG. 5.
The skin was imaged again to assess changes to blood flow. […] If any changes in flow or vessel size were observed, the skin was not irradiated again and was imaged after 24 hours. In all, 5 pulses were delivered ranging in radiant exposure from 4.13 J/cm^2 to 16 J/cm^2, the maximum allowable for the laser parameters used. In the second control sample, only a single pulse was delivered with a radiant exposure of 12 J/cm^2.
(§3) In the other three samples, glycerol was applied to the subdermal side of the window preparation for twenty minutes after imaging the native skin with CDOCT. The optically cleared skin was then imaged again using CDOCT. Laser pulses were applied in the same manner described above and the skin was re-imaged after twenty-four hours to assess if permanent vessel closure occurred.

[2] = tested on: arterioles and venules of the dorsal skin flap window preparation; assay: Subdermal (direct) laser irradiation of blood vessels after glycerol, RE50 for permanent coagulation; details: 532 nm, 10 ms pulse, 3 mm spot, versus published native skin values [Barton et al., 1998]
From the text: as §1

[3] = tested on: blood vessels (arterioles and venules) in skin; assay: Effect of glycerol applied to the subdermal side of skin on blood flow (dorsal skin flap window preparation, CDOCT imaging)
Protocol: Hamsters were anesthetized with a 4:3 mixture of Ketamine (20 mg/ml):Rompun (100 mg/ml) and 0.15 ml/100 g body weight of the solution was delivered IP. […] This in vivo model allows the simultaneous observation of the epidermal and subdermal sides of the skin while maintaining hydration and function [Papenfuss et al., 1979]. The preparation has been used as an in vivo model for optical imaging blood vessels on the subdermal side of skin while maintaining access to the epidermis [Barton et al., 1998, Vargas et al., 2001].
The preparation includes shaving and epilating the entire dorsal area of a hamster. The skin is pulled away from the body along the dorsal midline and sutured to a vertical c-clamp. A circular region 1 cm in diameter is cut from one single thickness of skin, exposing the subdermal side of the opposing thickness of skin. An aluminum chamber is sutured to both sides of the skin, and glass is placed over the cutout section to prevent the tissue from dehydrating on the subdermal side. During the experiments, this glass is removed for improved imaging, and hydration is maintained with application of physiological saline.
Blood vessels in the skin of the dorsal window preparation are located in the subdermal fat and connective tissue layers approximately 400-700 μm beneath the epidermal surface and about 80-100 μm from the exposed subdermal surface of a 100 g hamster. Arterioles and venules in the dorsal window preparation range in diameter between about 50-500 μm in inner diameter, with the main arteriole and venule about 350-500 μm in diameter.
as §1, §2, §3

## OCC(O)CO [glycerol]
[1]; glycerol twenty minutes, arteriole 250 μm, venule 300 μm, 450 μm from epidermal surface, skin hydrated
  vessel outcome 24 h after single pulse of 1.6 J/cm^2: Permanent coagulation has been achieved in both blood vessels; also recorded: flow has not returned to either vessel
[1]; glycerol, 200 μm arteriole and 410 μm venule
  vessel outcome after radiant exposure of 4.13 J/cm^2: successful permanent coagulation
[1]; glycerol, 300 μm arteriole and 390 μm venule
  vessel outcome after radiant exposure of 4.95 J/cm^2: only the venule was successfully coagulated
[1]; three window preparations, glycerol before irradiation from the epidermal side, 532 nm, 10 ms, 3 mm spot
  lowest radiant exposure that successfully destroyed blood vessels: 1.6 J/cm^2
[2]
  reduction of radiant exposure required for permanent vessel destruction, arterioles: 10 factor
  reduction of radiant exposure required for permanent vessel destruction, venules: 5-8 factor
[3]; addition of agent to blood vessels, no laser
  permanent vessel damage from agent alone: did not result in any permanent vessel damage
[3]; glycerol added to subdermal side of skin, prolonged periods of exposure
  flow in arterioles: flow in arterioles ceased as well
[3]; glycerol added to subdermal side of skin, within twenty minutes, venules approximately 100-400 μm in diameter
  flow in venules: ceased
[3]; glycerol for twenty minutes, arteriole 250 μm, venule 300 μm, imaged from subdermal side
  flow in arteriole and venule (Doppler image): no flow remains; also recorded: flow does not remain in either the arteriole or venule
[3]; skin hydrated in physiologic saline solution after glycerol
  flow in arterioles and venules after hydration (reversibility): returned to physiologic values; also recorded: upon hydration the skin and blood vessels return to their native state
